Source: PMC11148772, “Inhibition of protein translational machinery in triple-negative breast cancer as a promising therapeutic strategy” (Cell Reports Medicine, 2024)

How the values were obtained:
4T1 tumor = assay: Syngeneic mouse TNBC model; type: in vivo; conditions: 50 mg/kg oral gavage, Balb/cJ mice
Description: (§1) Female NOD-Scid gamma (NSG, Homozygous for Prkdc, Hemizygous for Il2rg<tm1Wjl>) (Strain #005557) and Balb/cJ (Strain#000651) (7–8 weeks old) mice were purchased from the Jackson Laboratory and housed under standard laboratory conditions. The Institutional Animal Care & Use Program of Oregon Health and Science University approved the protocol (#IP00003247). MDA-MB-231 (3 x 10^6), MDA-MB-468 (5 x 10^6), 4T1 (1 x 10^5) and EMT6 (1 x 10^5) cells were suspended in 100 μL of 1x PBS and injected subcutaneously in each mouse. Tumor growth was monitored regularly and once the tumors reached approximately around 50–100 mm^3, treatment with SU056 (50 mg/kg body weight given by oral gavage, 5 days per week) was started. Tumor size and body weight were measured once a week. At the end of treatment, mice were euthanized via deep anesthesia followed by cervical dislocation. Tumors were excised and weighed. Tumor samples were processed for immunoblotting for different markers.

EMT6 tumor = assay: Syngeneic mouse TNBC model; type: in vivo; conditions: 50 mg/kg oral gavage, Balb/cJ mice
Description: as §1

[1] = Body weight during tumor xenograft treatment; type: in vivo, mouse; conditions: 50 mg/kg
Description: as §1
(§2) Data S2. Effect of SU056 treatment on body weight, metastatic potential and pharmacokinetic profiling of SU056, related to Figure 2 and 3
Human, mouse and PDX models of TNBC were used for tumor xenograft studies. SU056 treatment was started when tumors reached around ~25-50 mm3 and continued until the experiment reached its 3-week endpoint. Body weight was monitored throughout the study to understand any change in dietary pattern. […]

[2] = biological target: T1, YB-1 and RPL11 interaction (Homo sapiens, UniProt P67809); assay: Immunoprecipitation of YB-1; type: cell-based; conditions: MDA-MB-231 and MDA-MB-468, 1 μM
T1 construct: Immunoprecipitation of YB-1 from protein lysates of SU056-treated MDA-MB-231 and MDA-MB-468 cells using YB-1 antibody; endogenous in cells; host or cells: MDA-MB-231; MDA-MB-468
Description: MDA-MB-231 and MDA-MB-468 cells with and without SU056 (1 μM) treatment for 6 and 12 h respectively and were lysed using M-PER lysis solution (Thermo Scientific, #78503), supplemented with Halt protease and phosphatase inhibitor cocktail (Thermo Scientific, #78440). Precleaned 300 μg protein lysate was incubated overnight at 4°C with 3 μg YB-1 (Abcam, #ab76149) on nutating rocker. The antibody was pulled down using 20 μL Protein A/G magnetic beads (Thermo scientific #88802). After three washings, beads were resuspended in 2X SDS sample buffer followed by heating at 90°C–100°C for 5 min. Samples were resolved and probed with indicated antibodies as described in immunoblotting assay.

kinases = assay: KINOMEscan multi-kinase profiling; type: binding; conditions: 10 μM
Description: The multi-kinase inhibition profile of SU056 was determined via the KINOMEScan screening platform (Eurofins discovery). The screening was performed at 10 μM of SU056. The kinase dendrogram was developed using the TREEspot interaction maps online application (Eurofins Discovery). The results are expressed as residual activity (% Control).

[3] = test system: MDA-MB-468 tumor xenograft; assay: Subcutaneous tumor xenograft; type: in vivo, mouse; conditions: 50 mg/kg oral gavage, NSG mice
Description: as §1

[4] = test system: MDA-MB-231 tumor xenograft; assay: Subcutaneous tumor xenograft; type: in vivo, mouse; conditions: 50 mg/kg oral gavage, NSG mice
Description: as §1

[5] = test system: TNBC cells (MDA-MB-231, MDA-MB-468, SUM159); assay: Immunoblot assay of cell lysates; type: cell-based, human
Description: MDA-MB-231, MDA-MB-468, and SUM159 cells were grown to 60–70% confluency and treated with DMSO and SU056 (1 μM) for 12 and 24 h. After the specific treatment time was over, total cell lysates were prepared in non-denaturing lysis buffer. For protein lysate from tumors: randomly selected frozen sample; three from vehicle and SU056 treated group were homogenized in non-denaturing lysis buffer at 4°C for 5 min. 10 μg of protein lysate per sample was resolved on 8–16% SDS-PAGE. Membranes were probed with specific primary antibodies followed by detection with HRP-conjugated appropriate secondary antibodies, visualized by enhanced chemiluminescence detection system, and imaged using an iBright imaging system (Thermo Fisher, USA).

[6] = test system: TNBC cells (MDA-MB-231, MDA-MB-468, SUM159, 4T1, EMT6); assay: Clonogenic (colony-formation) assay; type: cell-based
Description: We performed a clonogenic assay to check the effect of SU056 on clonal expansion potential of MDA-MB-231, MDA-MB-468, SUM159, 4T1, EMT6, and E0771 cells on tissue culture plates. MDA-MB-231 (1000 cells), MDA-MB-468 (1000 cells), SU159 (300 cells), 4T1 (300 cells), and EMT6 (300 cells), were seeded and grown for 24 h in complete media onto 12-well culture plate. Cells were treated with the specific concentrations of SU056 for 7–10 days in complete media. Plates were processed for crystal violet staining, and the number of colonies was counted for each well. Colonies were scanned for confluency area using a Tecan multimode plate reader.

4T1 lung metastasis = assay: Orthotopic 4T1 model, lung metastasis; type: in vivo, mouse; conditions: orthotopic 4T1, 50 mg/kg, lung metastatic nodules counted
Text: as §2
Human, mouse and PDX models of TNBC were used for tumor xenograft studies. SU056 treatment was started when tumors reached around ~25-50 mm3 and continued until the experiment reached its 3-week endpoint. Body weight was monitored throughout the study to understand any change in dietary pattern. Body weights of A) MDA-MB-231, B) MDA-MB-468, C) 4T1, D) EMT6, E) CA1616-PDX-TNBC, F) CA1262-PDX-TNBC, G) MA2821-PDX-TNBC and H) SUTI151-PDX-TNBC over time. I) Tumor volume, J) Tumor weight and K) The bar graph represents lung metastatic nodules in 4T1 orthotopic models. L) Representative images of lungs at the end of the treatment cycle. M) Mice were treated with 20 mg/kg SU056 orally. Cmax (maximum serum concentration), Tmax (time to reach Cmax), and T1/2 (elimination half-life of compound). N) Human liver microsomes were used for the purpose of metabolic profiling.
Data are shown as mean ± SD. Error bars represent ± SD.
*p < 0.05, **p < 0.01, ***p < 0.001 and ****p < 0.0001. Significant difference compared with respective control by Student’s t test or one-way ANOVA followed by Dunnett’s test.

SMILES: O=C1OCC2=C1C(c1cccc(F)c1)c1cc3c(cc1N2CCO)OCO3 (centres unmarked) [SU056, 9-(3-fluorophenyl)-5-(2-hydroxyethyl)-6,9-dihydro-[1,3]dioxolo[4,5-g]furo[3,4-b]quinolin-8(5H)-one]
- primary tumor load reduced compared with vehicle control (4T1 tumor): 45.53%
- tumor weight reduced compared with vehicle control (4T1 tumor): 61%
- reduction in tumor weight (EMT6 tumor): 42.53%
- tumor growth decreased in comparison to control (EMT6 tumor): 37.47%
- body weight of animals throughout treatment ([1]; MDA-MB-231, MDA-MB-468, 4T1, EMT6 models): remained the same
- body weight of animals throughout treatment ([1]; PDX models): remained the same
- YB-1 and RPL11 interaction [2]: inhibits
- kinase activity inhibition (kinases): does not inhibit
- primary tumor growth reduced compared with vehicle control [3]: 49.8%
- tumor weight reduced compared with vehicle control [3]: 35.1%
- tumor growth arrested compared to vehicle control [4]: 48%
- tumor weight reduced compared with vehicle control [4]: 44.4%
- RPLs (RPL36, RPL35, RPL32, RPL23A, RPL15, RPL11, RPL9) ([5]; 1 μM, 12 and 24 h): decreased
- YB-1 expression ([5]; 1 μM, 12 and 24 h): decreased
- c-Myc expression ([5]; 1 μM, 12 and 24 h): decreased
- expression of RPSs ([5]; 1 μM, 12 and 24 h): lower expression
- levels of translation initiation factors ([5]; 1 μM, 12 and 24 h): decreased
- overall levels of mTOR ([5]; 1 μM, 12 and 24 h): decreased
- phosphorylation of mTOR (S2448) ([5]; 1 μM, 12 and 24 h): inhibited
- phosphorylation of p70S6 kinase (T389 and S371) and S6R (S235/S236) ([5]; 1 μM, 12 and 24 h): decreased
- phospho-histone H3 (Ser10), mitotic phase marker ([5]; 12 and 24 h): arrests TNBC cells in the mitotic phase
- integrated stress response activation (PERK, eIF2α, ATF4) ([5]; MDA-MB-231 and MDA-MB-468, 1 μM): did not induce
- cell cycle regulatory proteins (p21 and p27) ([5]; MDA-MB-231 and MDA-MB-468, 1 μM, 12 and 24 h): moderate increase
- clonogenic potential ([6]; 0.5 μM, all TNBC cell lines): strong suppression
- number of colonies formed compared to untreated controls ([6]; 0.1, 0.25, and 0.5 μM, 7–10 days): significantly decreased
- decrease in lung metastasis compared to control (4T1 lung metastasis): 65.5%
